Experimental data taken from patent publication US8962596B2 (Array BioPharma Inc., priority 2010, dated 2015).

Columns and labels:
Format in all cases: biochemical
[1] = target: T1, Human Tyk2 kinase domain (Homo sapiens, UniProt P29597); assay: Tyk2 Inhibition Assay (Omnia kinase fluorescence peptide substrate assay); conditions: averaged IC50 ranges; assay of Example A; 10 μM (Km app) or 1 mM ATP, 2 nM Tyk2
T1 construct: comprising amino acids 886 to 1187 with 10 additional histidine residues; 10xHis (histidine tag) (C, cleaved yes); made in house
T1 sequence (P29597 886-1187): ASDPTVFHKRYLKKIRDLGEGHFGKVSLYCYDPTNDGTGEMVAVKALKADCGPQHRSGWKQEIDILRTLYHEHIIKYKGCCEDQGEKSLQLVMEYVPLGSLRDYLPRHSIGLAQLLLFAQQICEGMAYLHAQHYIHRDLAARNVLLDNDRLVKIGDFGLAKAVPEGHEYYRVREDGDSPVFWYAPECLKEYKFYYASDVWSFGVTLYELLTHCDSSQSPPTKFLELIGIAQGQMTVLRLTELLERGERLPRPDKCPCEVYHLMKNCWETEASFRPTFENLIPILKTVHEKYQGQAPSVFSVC
Procedure, shortened: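 2 nM His-tag-cleaved kinase domain (aa 886–1187) with 8 μM Omnia Y12 peptide, 10 μM (Km app) or 1 mM ATP, pH 7.4 HEPES/10 mM MgCl2, 2% DMSO. Fluorescence (ex 360/em 485 nm) every 50 s for 45 min; IC50 from 4-parameter fit of POC, top dose 10 μM.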

[2] = target: T2, JAK3 (Homo sapiens, UniProt P52333); assay: JAK3 Inhibition Assay (Omnia kinase fluorescence peptide substrate assay); conditions: averaged IC50 ranges; assay of Example D; 10 μM (Km app) or 1 mM ATP, 2.5 nM JAK3
T2 construct: purchased Invitrogen Corporation, Carlsbad, Calif; PV4080
T2 sequence (P52333 1-1124): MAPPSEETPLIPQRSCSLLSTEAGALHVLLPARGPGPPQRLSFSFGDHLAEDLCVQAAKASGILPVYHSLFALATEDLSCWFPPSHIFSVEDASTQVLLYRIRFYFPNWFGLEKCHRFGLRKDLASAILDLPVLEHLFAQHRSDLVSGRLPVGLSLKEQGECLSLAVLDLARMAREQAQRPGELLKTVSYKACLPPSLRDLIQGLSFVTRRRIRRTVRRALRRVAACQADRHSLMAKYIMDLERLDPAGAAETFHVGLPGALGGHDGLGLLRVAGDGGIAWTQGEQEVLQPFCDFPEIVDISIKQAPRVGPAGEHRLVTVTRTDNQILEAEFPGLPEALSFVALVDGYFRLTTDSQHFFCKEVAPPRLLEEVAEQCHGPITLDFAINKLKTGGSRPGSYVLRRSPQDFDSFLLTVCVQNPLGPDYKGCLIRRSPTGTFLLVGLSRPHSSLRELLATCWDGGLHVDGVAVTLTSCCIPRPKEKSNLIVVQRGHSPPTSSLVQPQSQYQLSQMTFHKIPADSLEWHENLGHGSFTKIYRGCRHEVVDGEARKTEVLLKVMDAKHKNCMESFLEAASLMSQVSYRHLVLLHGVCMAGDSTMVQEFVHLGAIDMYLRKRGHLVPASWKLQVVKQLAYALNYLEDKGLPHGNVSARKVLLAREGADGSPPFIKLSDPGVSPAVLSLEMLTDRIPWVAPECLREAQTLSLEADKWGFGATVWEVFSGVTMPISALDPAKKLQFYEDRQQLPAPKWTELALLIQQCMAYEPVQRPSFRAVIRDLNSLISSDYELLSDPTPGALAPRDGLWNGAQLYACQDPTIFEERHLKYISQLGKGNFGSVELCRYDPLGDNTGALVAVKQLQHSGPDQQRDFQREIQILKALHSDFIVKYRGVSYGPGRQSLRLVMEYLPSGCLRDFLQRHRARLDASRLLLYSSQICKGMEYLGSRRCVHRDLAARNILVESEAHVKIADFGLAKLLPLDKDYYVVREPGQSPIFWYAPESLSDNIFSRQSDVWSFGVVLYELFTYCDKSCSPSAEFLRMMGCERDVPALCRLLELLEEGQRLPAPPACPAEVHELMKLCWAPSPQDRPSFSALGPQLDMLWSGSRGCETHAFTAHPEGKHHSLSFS
Procedure, shortened: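 Kinase at 2.5 nM with 10 µM Omnia Y7 peptide and 10 µM (Km app) or 1 mM ATP in 25 mM HEPES pH 7.4, 10 mM MgCl2, 1 mM DTT, 0.01% Triton X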

[3] = target: T3, JAK2 (Homo sapiens, UniProt O60674); assay: JAK2 Inhibition Assay (Omnia kinase fluorescence peptide substrate assay); conditions: averaged IC50 ranges; assay of Example C; 25 μM (Km app) or 1 mM ATP, 5 nM JAK2
T3 construct: purchased Invitrogen Corporation, Carlsbad, Calif; PV4288
T3 sequence (O60674 whole entry): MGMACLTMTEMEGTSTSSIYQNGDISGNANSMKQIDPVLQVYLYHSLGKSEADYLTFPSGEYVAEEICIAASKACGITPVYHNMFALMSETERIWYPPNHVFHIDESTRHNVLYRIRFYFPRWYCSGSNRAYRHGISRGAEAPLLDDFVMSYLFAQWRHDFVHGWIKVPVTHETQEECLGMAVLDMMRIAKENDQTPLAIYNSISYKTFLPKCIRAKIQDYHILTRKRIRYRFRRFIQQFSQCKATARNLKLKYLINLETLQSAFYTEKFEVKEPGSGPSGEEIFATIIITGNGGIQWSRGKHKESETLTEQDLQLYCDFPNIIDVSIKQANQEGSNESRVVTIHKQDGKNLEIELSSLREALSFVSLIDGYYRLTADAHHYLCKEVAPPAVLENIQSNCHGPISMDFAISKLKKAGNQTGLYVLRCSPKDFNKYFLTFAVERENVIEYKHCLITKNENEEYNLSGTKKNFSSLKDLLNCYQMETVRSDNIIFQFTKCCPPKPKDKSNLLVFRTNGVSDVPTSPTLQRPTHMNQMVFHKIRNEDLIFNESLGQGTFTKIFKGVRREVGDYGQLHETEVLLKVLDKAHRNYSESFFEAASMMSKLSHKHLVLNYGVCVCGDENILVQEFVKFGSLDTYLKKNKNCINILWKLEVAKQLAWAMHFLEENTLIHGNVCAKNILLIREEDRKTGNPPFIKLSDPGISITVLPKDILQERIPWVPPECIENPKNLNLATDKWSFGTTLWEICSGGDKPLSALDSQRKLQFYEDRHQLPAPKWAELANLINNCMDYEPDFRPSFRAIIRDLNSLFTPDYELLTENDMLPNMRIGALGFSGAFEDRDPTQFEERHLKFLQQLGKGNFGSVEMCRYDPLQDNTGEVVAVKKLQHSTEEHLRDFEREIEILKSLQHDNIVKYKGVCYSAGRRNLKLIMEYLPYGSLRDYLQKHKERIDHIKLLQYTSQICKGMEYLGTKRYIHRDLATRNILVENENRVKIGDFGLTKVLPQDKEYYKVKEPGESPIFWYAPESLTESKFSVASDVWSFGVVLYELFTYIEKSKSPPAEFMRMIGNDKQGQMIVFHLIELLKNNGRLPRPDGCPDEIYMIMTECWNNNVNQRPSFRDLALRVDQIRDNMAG
Procedure, shortened: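 A 10-point, 3-fold compound series (top 10 μM, 2% DMSO) was tested against 5 nM JAK2 with 10 μM Omnia Y7 substrate and either 1 mM or 25 μM (Km app) ATP. Buffer: pH 7.4 HEPES, MgCl2, Triton X-100, DTT. Sox fluorescence was monitored kinetically for 45 min; IC50 is the concentration giving 50 POC on a 4-parameter fit.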

[4] = target: T4, JAK1 (Homo sapiens, UniProt P23458); assay: JAK1 Inhibition Assay (Omnia kinase fluorescence peptide substrate assay); conditions: averaged IC50 ranges; assay of Example B; 40 μM (Km app) or 1 mM ATP, 15 nM JAK1
T4 construct: purchased Invitrogen Corporation, Carlsbad, Calif; PV4775
T4 sequence (P23458 whole entry): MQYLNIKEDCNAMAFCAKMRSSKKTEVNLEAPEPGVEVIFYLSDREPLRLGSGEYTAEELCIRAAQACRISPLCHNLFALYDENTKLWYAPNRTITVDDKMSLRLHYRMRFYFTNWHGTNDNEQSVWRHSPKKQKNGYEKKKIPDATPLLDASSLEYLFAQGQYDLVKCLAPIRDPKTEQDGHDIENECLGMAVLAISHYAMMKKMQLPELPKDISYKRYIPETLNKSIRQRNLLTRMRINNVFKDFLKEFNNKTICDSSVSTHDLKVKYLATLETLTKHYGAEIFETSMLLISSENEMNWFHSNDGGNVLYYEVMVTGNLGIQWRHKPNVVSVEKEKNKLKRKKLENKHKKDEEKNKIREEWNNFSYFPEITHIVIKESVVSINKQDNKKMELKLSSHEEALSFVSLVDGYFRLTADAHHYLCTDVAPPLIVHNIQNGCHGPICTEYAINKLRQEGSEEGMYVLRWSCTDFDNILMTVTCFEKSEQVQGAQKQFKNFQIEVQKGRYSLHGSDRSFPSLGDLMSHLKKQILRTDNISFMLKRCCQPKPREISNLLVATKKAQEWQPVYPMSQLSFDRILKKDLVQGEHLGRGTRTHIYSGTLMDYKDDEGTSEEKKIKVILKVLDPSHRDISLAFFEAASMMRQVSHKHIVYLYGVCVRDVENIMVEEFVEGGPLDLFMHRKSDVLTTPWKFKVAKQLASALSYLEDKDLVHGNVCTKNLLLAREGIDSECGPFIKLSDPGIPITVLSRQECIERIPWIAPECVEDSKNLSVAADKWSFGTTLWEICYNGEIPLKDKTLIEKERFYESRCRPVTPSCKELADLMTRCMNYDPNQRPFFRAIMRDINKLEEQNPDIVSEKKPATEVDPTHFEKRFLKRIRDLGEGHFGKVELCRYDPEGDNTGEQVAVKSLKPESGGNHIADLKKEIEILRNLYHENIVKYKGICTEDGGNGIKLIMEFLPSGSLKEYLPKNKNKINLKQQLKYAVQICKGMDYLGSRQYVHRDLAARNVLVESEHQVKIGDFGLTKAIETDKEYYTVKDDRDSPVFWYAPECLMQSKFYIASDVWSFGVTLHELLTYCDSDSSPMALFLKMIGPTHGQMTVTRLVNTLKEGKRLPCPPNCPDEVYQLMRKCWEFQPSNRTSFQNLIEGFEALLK

SMILES | IC50 [1] [nM] | IC50 [2] [nM] | IC50 [3] [nM] | IC50 [4] [nM]
Cn1cc(-c2cc3nccn3c(-c3cnn(C(CC#N)c4ccccc4Cl)c3)n2)cn1 (centres unmarked) [Example 12, 3-(2-chlorophenyl)-3-(4-(7-(1-methyl-1H-pyrazol-4-yl)imidazo[1,2-c]pyrimidin-5-yl)-1H-pyrazol-1-yl)propanenitrile] | 10 to 100 | 100 to 1000 | 10 to 100 | 10 to 100
Cn1cc(-c2cc3nccn3c(-c3cnn(C(CC#N)c4cccc(Cl)c4)c3)n2)cn1 (centres unmarked) [Example 13, 3-(3-chlorophenyl)-3-(4-(7-(1-methyl-1H-pyrazol-4-yl)imidazo[1,2-c]pyrimidin-5-yl)-1H-pyrazol-1-yl)propanenitrile] | < 10 | 100 to 1000 | < 10 | 10 to 100
CC(=O)N1CCC(C(CC#N)n2cc(-c3nc(-c4cnn(C)c4)cc4nccn34)cn2)CC1 (centres unmarked) [Example 27, 3-(1-acetylpiperidin-4-yl)-3-(4-(7-(1-methyl-1H-pyrazol-4-yl)imidazo[1,2-c]pyrimidin-5-yl)-1H-pyrazol-1-yl)propanenitrile] | 100 to 1000 | > 1000 | 100 to 1000 | 100 to 1000
Cn1cc(-c2cc3nccn3c(-c3cnn(C(CC#N)c4cncc(Br)c4)c3)n2)cn1 (centres unmarked) [Example 10, 3-(5-bromopyridin-3-yl)-3-(4-(7-(1-methyl-1H-pyrazol-4-yl)imidazo[1,2-c]pyrimidin-5-yl)-1H-pyrazol-1-yl)propanenitrile] | < 10 | 100 to 1000 | 10 to 100 | 10 to 100
Cc1nn(C(CC#N)C2CC2)cc1-c1nc(-c2cnn(C)c2)cc2nccn12 (centres unmarked) [Example 109, 3-Cyclopropyl-3-(3-methyl-4-(7-(1-methyl-1H-pyrazol-4-yl)imidazo[1,2-c]pyrimidin-5-yl)-1H-pyrazol-1-yl)propanenitrile] | 10 to 100 | > 1000 | 100 to 1000 | > 1000
CC(CC#N)n1cc(-c2nc(-c3ccc(N4CCOCC4)cc3)cc3nccn23)cn1 (centres unmarked) [Example 118, 3-(4-(7-(4-morpholinophenyl)imidazo[1,2-c]pyrimidin-5-yl)-1H-pyrazol-1-yl)butanenitrile] | < 10 | 100 to 1000 | 10 to 100 | 10 to 100
N#CCC(C1CC1)n1cc(-c2nc(C(=O)NC3CCC3)cc3nccn23)cn1 (centres unmarked) [Example 124, 5-(1-(2-Cyano-1-cyclopropylethyl)-1H-pyrazol-4-yl)-N-cyclobutylimidazo[1,2-c]pyrimidine-7-carboxamide] | 100 to 1000 | > 1000 | > 1000 | > 1000
Cn1cc(-c2cc3nccn3c(-c3ccn(C4(CC#N)CN(CC(F)(F)F)C4)n3)n2)ccc1=O [Example 145, 2-(3-(3-(7-(1-methyl-6-oxo-1,6-dihydropyridin-3-yl)imidazo[1,2-c]pyrimidin-5-yl)-1H-pyrazol-1-yl)-1-(2,2,2-trifluoroethyl)azetidin-3-yl)acetonitrile] | < 10 | > 1000 | 10 to 100 | 100 to 1000
N#CCC(C1CCCC1)n1cc(-c2nc(-c3ccc(N4CCOCC4)cc3)cc3nccn23)cn1 (centres unmarked) [Example 113, 3-Cyclopentyl-3-(4-(7-(4-morpholinophenyl)imidazo[1,2-c]pyrimidin-5-yl)-1H-pyrazol-1-yl)propanenitrile] | < 10 | 100 to 1000 | 10 to 100 | 10 to 100
N#CCC1(n2cc(-c3nc(-c4cnn(C5COC5)c4)cc4ncc(Cl)n34)cn2)CN(CC(F)(F)F)C1 [Example 153, 2-(3-(4-(3-chloro-7-(1-(oxetan-3-yl)-1H-pyrazol-4-yl)imidazo[1,2-c]pyrimidin-5-yl)-1H-pyrazol-1-yl)-1-(2,2,2-trifluoroethyl)azetidin-3-yl)acetonitrile] | < 10 | 100 to 1000 | 10 to 100 | 100 to 1000

Further lines, results first:

IC50 [1] [nM] | IC50 [2] [nM] | IC50 [3] [nM] | IC50 [4] [nM] | SMILES
10 to 100 | > 1000 | 100 to 1000 | 100 to 1000 | CCCN1CC(CC#N)(n2cc(-c3nc(-c4cnn(C)c4)cc4nccn34)cn2)C1 [Example 81, 2-(3-(4-(7-(1-methyl-1H-pyrazol-4-yl)imidazo[1,2-c]pyrimidin-5-yl)-1H-pyrazol-1-yl)-1-propylazetidin-3-yl)acetonitrile]
10 to 100 | > 1000 | 100 to 1000 | > 1000 | CN1CCC(CC#N)(n2cc(-c3nc(-c4cnn(C)c4)cc4nccn34)cn2)CC1 [Example 28, 2-(1-methyl-4-(4-(7-(1-methyl-1H-pyrazol-4-yl)imidazo[1,2-c]pyrimidin-5-yl)-1H-pyrazol-1-yl)piperidin-4-yl)acetonitrile]
< 10 | 100 to 1000 | 10 to 100 | 10 to 100 | Cn1cc(-c2cc3nccn3c(-c3cnn(C4(CC#N)CN(CC(F)(F)C(F)(F)F)C4)c3)n2)cn1 [Example 70, 2-(3-(4-(7-(1-Methyl-1H-pyrazol-4-yl)imidazo[1,2-c]pyrimidin-5-yl)-1H-pyrazol-1-yl)-1-(2,2,3,3,3-pentafluoropropyl)azetidin-3-yl)acetonitrile]
100 to 1000 | > 1000 | > 1000 | > 1000 | Cn1cc(-c2cc3nccn3c(-c3ccn(C4(CC#N)CN(C(=O)OC(C)(C)C)C4)n3)n2)cn1 [Example 129, Tert-butyl 3-(cyanomethyl)-3-(3-(7-(1-methyl-1H-pyrazol-4-yl)imidazo[1,2-c]pyrimidin-5-yl)-1H-pyrazol-1-yl)azetidine-1-carboxylate]
< 10 | > 1000 | 100 to 1000 | 100 to 1000 | CCCS(=O)(=O)N1CC(CC#N)(n2cc(-c3nc(-c4cnn(C)c4)cc4nccn34)cn2)C1 [Example 93, 2-(3-(4-(7-(1-methyl-1H-pyrazol-4-yl)imidazo[1,2-c]pyrimidin-5-yl)-1H-pyrazol-1-yl)-1-(propylsulfonyl)azetidin-3-yl)acetonitrile]
10 to 100 | > 1000 | 100 to 1000 | 100 to 1000 | CC(C)CN1CC(CC#N)(n2cc(-c3nc(-c4cnn(C)c4)cc4nccn34)cn2)C1 [Example 85, 2-(1-isobutyl-3-(4-(7-(1-methyl-1H-pyrazol-4-yl)imidazo[1,2-c]pyrimidin-5-yl)-1H-pyrazol-1-yl)azetidin-3-yl)acetonitrile]
10 to 100 | > 1000 | 100 to 1000 | > 1000 | COc1ncc(-c2cc3nccn3c(-c3cnn(C4(CC#N)CN(S(=O)(=O)C5CC5)C4)c3)n2)cn1 [Example 141, 2-(1-(cyclopropylsulfonyl)-3-(4-(7-(2-methoxypyrimidin-5-yl)imidazo[1,2-c]pyrimidin-5-yl)-1H-pyrazol-1-yl)azetidin-3-yl)acetonitrile]
